Patent US20040132996A1, “Method for preparation of ceftiofur and salts thereof” (LUPIN LIMITED, priority 2002, published 2004)

Assay: Storage stability of the product at 40° ± 2° C. for 90 days (drop in assay)
Format: physicochemical
Conditions: for Storage Stability: assay after storage: after 90 days at 40° ± 2° C.; for Storage Stability: assay at start: before storage at 40° ± 2° C.; for storage stability (statement in words): product obtained by the process of the invention

Compound | Storage Stability (90 days at 40° ± 2° C.) | Storage Stability: assay after storage | Storage Stability: assay at start | storage stability (statement in words)
CO/N=C(\C(=O)N[C@@H]1C(=O)N2C(C(=O)O)=C(CSC(=O)c3ccco3)CS[C@H]12)c1csc(N)n1 [ceftiofur (Ia)] | Stable for 90 days at 40° ± 2 °C with a | 92% | 97% | high storage stability
CO/N=C(\C(=O)N[C@@H]1C(=O)N2C(C(=O)[O-])=C(CSC(=O)c3ccco3)CS[C@H]12)c1csc(N)n1.[Na+] [ceftiofur sodium (Ib)] |  | 87% | 94% | high storage stability
